# Data published in patent US5354691A, “Polypeptides and derivatives thereof as well as their use in pharmaceutical and diagnostic compositions” (priority 1987, dated 1994).
# What was measured:
# [1] = system: T-cell clones A2b and A2c; assay: Stimulating activity on T-cell clones A2b and A2c, stated for both clones together; type: cell-based, rat
# T-cell clone A2b = assay: T-cell clone proliferation (3H-thymidine uptake, stimulation index), clone A2b; type: cell-based, rat; details: polypeptide with sequence homologous to antigen A 180-188
# [2] = system: T-cell clones A2b and A2c; details: from European patent application 0 262 710 / EP-A-0 181 364; cited from earlier work
substance,measurement,setting,value
RARLQLELS [lamin A and C],response of the T-cell clones A2b and A2c,[1],react positively
TFGLQPQDT [antigen from Epstein-Barr virus],response of T-cell clone A2b,T-cell clone A2b,responds
"proteoglycan protein of cartilage: proteoglycan protein of cartilage (J.Biol.Chem. 261, 3519-3535)",recognition by / response of T-cell clones A2b and A2c,[2],recognized
